Reference: patent US20260207569A1, “LPA1 ANTAGONISTS FOR TREATING INTERSTITIAL LUNG DISEASE” (Bristol-Myers Squibb Company, priority 2022, published 2026)

Legend:
[1] = Phase 1 Part C MAD, blood pressure, healthy Japanese participants; type: in vivo, human
Method: The study was performed in 3 parts in 112 healthy male and female participants, including 24 Japanese participants. Female participants were to be not of childbearing potential. The present study was designed to evaluate the safety and tolerability, PK, and exploratory PD of an oral suspension of Compound A. Parts A and B (Cohort B1 only) enrolled healthy participants and was conducted at a site in The Netherlands and Part B (Cohort B2 to B5) enrolled healthy non-Japanese participants and was conducted at a site in the United Kingdom (UK). Part C enrolled healthy Japanese participants and was conducted at the same site in the UK.
Part C was a MAD study in 3 sequential dose escalation cohorts (30 mg BID, 60 mg BID, and 90 mg BID) of 8 healthy Japanese participants (6 active+2 placebo) each. Eligible participants in Cohorts C1 to C3 received study drug (Compound A or placebo) administered orally for 14 days.
Physical examinations, vital sign measurements (including orthostasis testing in Cohort A6, Cohort B3 to B5, and C1 to C3 at selected time points), 12-lead electrocardiogram (ECG), and clinical laboratory evaluations were performed at selected times throughout the study. In addition, Holter monitoring was performed for the first 24 hours post dose on Day 1 in Part A (not in FE/pH cohort), and also for the first 24 hours post dose on Day 1 and Day 14 in Parts B and C. Participants were closely monitored for adverse events (AEs). Blood samples were collected for up to 14 days (follow-up visit) after (last) study drug administration for PK analysis. In addition, blood and urine were collected for exploratory biomarker assessments and for biobanking of samples for potential analyses. Urine was collected for potential PK analysis for up to 96 hours after a single dose of Compound A or placebo was administered in the SAD part, and for up to 24 hours after the first (morning) dose of study drug on Day 1 and for up to 24 hours after the last (morning) dose of study drug on Day 14 in the MAD parts.

[2] = Phase 2 PPF cohort safety: adverse events, prespecified asymptomatic or symptomatic blood pressure reduction criteria, dose reductions; type: in vivo, human; conditions: for Patients with asymptomatic blood pressure reduction, (%) / Patients with asymptomatic blood pressure reduction, no. / Patients with symptomatic blood pressure reduction, (%) / Patients with symptomatic blood pressure reduction, no.: prespecified criteria
Method: A total of 123 participants with PPF were randomized. Participants (age ≥21 years) were randomized (1:1:1) to receive 30 mg or 60 mg Compound A or PBO twice daily for 26 weeks. […] Immunosuppressive medications (mycophenolate mofetil, mycophenolic acid, azathioprine and/or tacrolimus) were permitted only if dosing is stable for ≥6 months prior to screening. If receiving antifibrotic agents pirfenidone or nintedanib, patients had to receive a stable dosage for ≥3 months prior to screening and during the screening period; if not receiving pirfenidone or nintedanib, patients had to be naive to both drugs or not have received either 4 weeks prior to Day 1. A total of 47 (38.2%) subjects were receiving antifibrotic treatment (with or without immunosuppression therapy). Of those subjects, 34 were being treated with nintedanib and 13 with pirfenidone. Participants were stratified by usual interstitial pneumonia (UIP) pattern (presence versus absence) and background therapy (antifibrotics +/−ILD-targeted immunosuppression versus ILD-targeted immunosuppression alone versus none). UIP pattern was present in 52% of subjects and unclassifiable ILD was he most common disease categorization.
Patient is experiencing any of the following, confirmed by retest within 15 minutes: • Seated systolic blood pressure <85 mmHg • Seated diastolic blood pressure <55 mmHg • Orthostatic hypotension
Patient is experiencing symptoms that, in the investigator's opinion, could be associated with a reduction in blood pressure and is also experiencing at least one of the following, confirmed by retest within 15 minutes: • Seated systolic blood pressure <100 mmHg or seated diastolic blood pressure <60 mmHg • Decrease of seated systolic blood pressure of ≥20 mmHg from the previous visit or decrease of seated diastolic blood pressure of ≥10 mmHg from the previous visit • Orthostatic hypotension • Orthostatic tachycardia

[3] = PPF cohort, 30-mg Compound A (n = 40)
[4] = PPF cohort, 60-mg Compound A (n = 42)

CCCN(C)C(=O)OCc1c(-c2ccc(O[C@H]3CCC[C@H](C(=O)O)C3)c(C)n2)nnn1C [Compound A, (1S,3S)-3-((2-methyl-6-(1-methyl-5-(((methyl(propyl)carbamoyl)-oxy)methyl)-1H-1,2,3-triazol-4-yl)pyridin-3-yl)oxy)cyclohexane-1-carboxylic acid]
Maximum of mean (±SD) reduction in SBP from baseline ([1]; Japanese MAD 30 mg BID (C1)): 15.0 ± 6.84 mmHg | Time of maximum mean SBP reduction ([1]; Japanese MAD 30 mg BID (C1)): 1-4 Day-h | Time of maximum mean DBP reduction ([1]; Japanese MAD 90 mg BID (C2)): 1-6 Day-h | Time of maximum mean SBP reduction ([1]; Japanese MAD 90 mg BID (C2)): 1-6 Day-h | Reductions in mean BP ([1]; Japanese MAD cohorts): no clear Compound A dose-dependent BP reduction trend | Day-1 blood pressure reduction ([2]; PPF cohort): dose dependent day-1 blood pressure reduction | Marked laboratory abnormalities ([2]; PPF cohort): No notable imbalances in marked laboratory abnormalities among treatment groups | Prespecified blood pressure reduction criteria across arms ([2]; PPF cohort): increased in a dose-dependent manner | Patients with dose reductions, (%) [2, 3]: (15.0) % | Patients with dose reductions, no. [2, 3]: 6 no. | Patients with orthostatic hypotension (within asymptomatic blood pressure reduction), (%) [2, 3]: (15.0) % | Patients with orthostatic hypotension (within asymptomatic blood pressure reduction), no. [2, 3]: 6 no. | Patients with orthostatic hypotension (within symptomatic blood pressure reduction), (%) [2, 3]: (2.5) % | Patients with orthostatic hypotension (within symptomatic blood pressure reduction), no. [2, 3]: 1 no. | Patients with asymptomatic blood pressure reduction, (%) [2, 3]: (22.5) % | Patients with asymptomatic blood pressure reduction, no. [2, 3]: 9 no. | Patients with symptomatic blood pressure reduction, (%) [2, 3]: (5.0) % | Patients with symptomatic blood pressure reduction, no. [2, 3]: 2 no. | Patients with dose reductions, (%) [2, 4]: (11.9) % | Patients with dose reductions, no. [2, 4]: 5 no. | Patients with orthostatic hypotension (within asymptomatic blood pressure reduction), (%) [2, 4]: (26.2) % | Patients with orthostatic hypotension (within asymptomatic blood pressure reduction), no. [2, 4]: 11 no. | Patients with orthostatic hypotension (within symptomatic blood pressure reduction), (%) [2, 4]: (9.5) % | Patients with orthostatic hypotension (within symptomatic blood pressure reduction), no. [2, 4]: 4 no. | Patients with asymptomatic blood pressure reduction, (%) [2, 4]: (31.0) % | Patients with asymptomatic blood pressure reduction, no. [2, 4]: 13 no. | Patients with symptomatic blood pressure reduction, (%) [2, 4]: (14.3) % | Patients with symptomatic blood pressure reduction, no. [2, 4]: 6 no. | Low BP thresholds (“events”) ([2]; PPF, 30 mg BID): 30% | COVID-19, % ([2]; PPF, 30 mg BID (n = 40)): (15.0) % | COVID-19, no. ([2]; PPF, 30 mg BID (n = 40)): 6 | Cough, % ([2]; PPF, 30 mg BID (n = 40)): (7.5) % | Cough, no. ([2]; PPF, 30 mg BID (n = 40)): 3 | Deaths due to TEAEs, no. ([2]; PPF, 30 mg BID (n = 40)): 0 | Diarrhea, % ([2]; PPF, 30 mg BID (n = 40)): (15.0) % | Diarrhea, no. ([2]; PPF, 30 mg BID (n = 40)): 6 | Discontinuations due to TEAEs, % ([2]; PPF, 30 mg BID (n = 40)): (2.5) % | Discontinuations due to TEAEs, no. ([2]; PPF, 30 mg BID (n = 40)): 1 | Dizziness, no. ([2]; PPF, 30 mg BID (n = 40)): 0 | Dyspnea, % ([2]; PPF, 30 mg BID (n = 40)): (5.0) % | Dyspnea, no. ([2]; PPF, 30 mg BID (n = 40)): 2 | Hypertension, no. ([2]; PPF, 30 mg BID (n = 40)): 0 | Hypotension, % ([2]; PPF, 30 mg BID (n = 40)): (10.0) % | Hypotension, no. ([2]; PPF, 30 mg BID (n = 40)): 4 | Nausea, % ([2]; PPF, 30 mg BID (n = 40)): (10.0) % | Nausea, no. ([2]; PPF, 30 mg BID (n = 40)): 4 | Orthostatic hypotension, % ([2]; PPF, 30 mg BID (n = 40)): (5.0) % | Orthostatic hypotension, no. ([2]; PPF, 30 mg BID (n = 40)): 2 | Patients with ≥1 TEAE related to study drug, no. ([2]; PPF, 30 mg BID (n = 40)): 7 | Patients with ≥1 TEAE, no. ([2]; PPF, 30 mg BID (n = 40)): 33 | Patients with ≥1 TESAE, no. ([2]; PPF, 30 mg BID (n = 40)): 4 | Rash, % ([2]; PPF, 30 mg BID (n = 40)): (7.5) % | Rash, no. ([2]; PPF, 30 mg BID (n = 40)): 3 | Vomiting, % ([2]; PPF, 30 mg BID (n = 40)): (7.5) % | Vomiting, no. ([2]; PPF, 30 mg BID (n = 40)): 3 | Orthostatic hypotension (asymptomatic and symptomatic) vs other groups ([2]; PPF, 60 mg BID): higher in the 60 mg group than for other groups | COVID-19, % ([2]; PPF, 60 mg BID (n = 42)): (14.3) % | COVID-19, no. ([2]; PPF, 60 mg BID (n = 42)): 6 | Cough, % ([2]; PPF, 60 mg BID (n = 42)): (11.9) % | Cough, no. ([2]; PPF, 60 mg BID (n = 42)): 5 | Deaths due to TEAEs, no. ([2]; PPF, 60 mg BID (n = 42)): 0 | Diarrhea, % ([2]; PPF, 60 mg BID (n = 42)): (7.1) % | Diarrhea, no. ([2]; PPF, 60 mg BID (n = 42)): 3 | Discontinuations due to TEAEs, no. ([2]; PPF, 60 mg BID (n = 42)): 0 | Dizziness, % ([2]; PPF, 60 mg BID (n = 42)): (9.5) % | Dizziness, no. ([2]; PPF, 60 mg BID (n = 42)): 4 | Dyspnea, no. ([2]; PPF, 60 mg BID (n = 42)): 0 | Hypertension, % ([2]; PPF, 60 mg BID (n = 42)): (2.4) % | Hypertension, no. ([2]; PPF, 60 mg BID (n = 42)): 1 | Hypotension, % ([2]; PPF, 60 mg BID (n = 42)): (7.1) % | Hypotension, no. ([2]; PPF, 60 mg BID (n = 42)): 3 | Nausea, % ([2]; PPF, 60 mg BID (n = 42)): (2.4) % | Nausea, no. ([2]; PPF, 60 mg BID (n = 42)): 1 | Orthostatic hypotension, % ([2]; PPF, 60 mg BID (n = 42)): (9.5) % | Orthostatic hypotension, no. ([2]; PPF, 60 mg BID (n = 42)): 4 | Patients with ≥1 TEAE related to study drug, no. ([2]; PPF, 60 mg BID (n = 42)): 11 | Patients with ≥1 TEAE, no. ([2]; PPF, 60 mg BID (n = 42)): 28 | Patients with ≥1 TESAE, no. ([2]; PPF, 60 mg BID (n = 42)): 5 | Rash, no. ([2]; PPF, 60 mg BID (n = 42)): 0 | Vomiting, no. ([2]; PPF, 60 mg BID (n = 42)): 0 | Adverse event profile other than low blood pressure ([2]; PPF, 60 mg BID versus placebo): generally in favor of the 60 mg group versus placebo
